Read-outs that look alike come from different tables or passages of the source.
Biological target: T1, full-length SARM1 (FL-SARM1) (Homo sapiens, UniProt Q6SZW1)
T1 sequence (Q6SZW1 28-724): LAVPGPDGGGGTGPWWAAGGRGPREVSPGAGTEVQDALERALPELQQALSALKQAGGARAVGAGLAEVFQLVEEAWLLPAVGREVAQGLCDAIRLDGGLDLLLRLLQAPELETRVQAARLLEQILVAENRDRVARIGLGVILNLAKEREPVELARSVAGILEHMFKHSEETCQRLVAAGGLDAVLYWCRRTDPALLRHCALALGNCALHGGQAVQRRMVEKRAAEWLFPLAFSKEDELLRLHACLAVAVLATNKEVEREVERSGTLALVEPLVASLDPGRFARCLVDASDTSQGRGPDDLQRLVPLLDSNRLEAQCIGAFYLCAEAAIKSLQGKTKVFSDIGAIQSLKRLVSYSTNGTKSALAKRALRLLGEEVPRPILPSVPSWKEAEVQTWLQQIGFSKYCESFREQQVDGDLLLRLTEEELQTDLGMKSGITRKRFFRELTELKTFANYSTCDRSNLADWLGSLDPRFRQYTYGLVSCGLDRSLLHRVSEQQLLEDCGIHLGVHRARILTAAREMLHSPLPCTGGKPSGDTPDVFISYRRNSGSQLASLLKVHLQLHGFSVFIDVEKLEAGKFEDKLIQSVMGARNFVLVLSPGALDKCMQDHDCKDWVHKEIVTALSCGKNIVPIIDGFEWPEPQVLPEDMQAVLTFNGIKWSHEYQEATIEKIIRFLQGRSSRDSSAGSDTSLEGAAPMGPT
Assay: FL-SARM1 cellular lysate assay (NAD/NADH-Glo detection of remaining NAD+, NMN-activated)

[1] = Activity (μM) (IC50), 11 point curve
[2] = read-out: Activity (IC50 class), 11 point curve
[3] = Activity (IC50 class), 11 point curve

Protocol: Preparation of full-length SARM1 (FL-SARM1) lysate: HEK293T cells (ATCC: CRL-3216) were grown on 150 mm TC-treated dishes to 80-90% confluency in complete DMEM (DMEM (Thermo Fisher: 11965175) supplemented with 10% HI—FBS (VWR: 10802-772), 1× Pen/Strep (Thermo Fisher: 15140122), 1×NEAA (Thermo Fisher: 1140050), 1× glutamax (Thermo Fisher: 35050061), and 1 mM sodium pyruvate (Thermo Fisher: 11360070)) at 37° C. and 5% CO2. One hour prior to transfection, the media was replaced with fresh, 37° C. complete DMEM (20 mL per one 150 mm dish) supplemented with additional 10 mM glucose (Alfa Aesar AAJ60067EQE). Per one 150 mm dish, 30 μg FL-SARM1 (SEQ. ID. 1; cloned in-house) plasmid was dissolved in 1 mL DMEM at ambient temperature and were mixed by inverting the tube 8-10 times. 90 μL of GenJet™ in vitro DNA transfection reagent (Ver2) was dissolved in 1 mL DMEM at ambient temperature and were mixed by inverting the tube 8-10 times. The plasmid and transfection agent solutions were combined, mixed by 8-10 inversions and incubated for 10 minutes at ambient temperature. 2 mL of this transfection mixture was added to each dish containing HEK293T cells as prepared above followed by a gentle mixing of 4-5 horizontal rotations. The dishes were incubated at 37° C. and 5% CO2 for 24 h. The dishes were removed from the incubator, the medium was aspirated and the cells were scraped off using cell scrapers in ice-cold 1×PBS (5 mL/dish, Thermo Fisher Scientific 10010023). The collected cells were centrifuged at 300 g for 5 minutes at 4° C. The supernatant was aspirated and the pellet was frozen at −80° C. until needed. The cell pellet from 30 dishes was dissolved in 30 mL 1×PBS supplemented with 4 tablets of Complete, Mini EDTA-free protease inhibitor cocktail at 4° C. This mixture was sonicated on ice for 10 minutes at 50% amplitude with a 1 second on/1 second off interval using a Model 120 sonicator (Thermo Fisher Scientific, FB120110). The lysate was centrifuged at 16000 g for 10 minutes at 4° C.
To a white 384-well Proxiplate (PerkinElmer, PE-6008280) was added 50 nL/well of a DMSO solution containing test compounds followed by 7.5 μL/well of a 0.067 mg/mL solution of SARMi cellular lysate in reaction buffer (DPBS containing CHAPSO (0.1%) and fatty acid free BSA (0.032%)). The plate was centrifuged for 1 minute at 1000 RPM and then placed in an incubator at 23° C. for 15 minutes. To the wells were added 2.5 μL/well of a solution containing 40 M NAD^+ and 4 mM nicotinamide mononucleotide (NMN) in reaction buffer. The plate was centrifuged for 1 min at 1000 RPM, the plate was sealed and placed in an incubator at 23° C. for 3.5 hours before adding 3.5 μL/well of NAD/NADH-Glo™ solution (preparation as described by Promega using the extended detection protocol). The plate was centrifuged for 1 minute at 1000 RPM and then incubated at 23° C. for 20 minutes. 1 μL/well of a 3.625 mM solution of menadione in DMSO was added and the plate was centrifuged for 1 minute at 1000 RPM. Relative light units (RLU) were recorded using an Envision plate reader at a height of 6.5 mm.
IC50 values were calculated from an 11 point curve using ½ log dilutions using a four-parameter logistic regression curve fit.

Compound | IC50 [1] | IC50 [2] | IC50 [3]
Cc1ccc(NC(=O)N2[C@@H]3CC(C)C[C@H]2C3)cc1-c1ncccc1C (mixture of isomers) [Example 31, 3-methyl-N-(4-methyl-3-(3-methylpyridin-2-yl)phenyl)-6-azabicyclo[3.1.1]heptane-6-carboxamide] | 0.8 µM | 0.0001 to 1 µM | –
Cc1ccc(NC(=O)N2CCCC3C2C3C(F)(F)F)cc1-c1ccccn1 (mixture of isomers) [Example 98, N-(4-methyl-3-pyridin-2-ylphenyl)-7-(trifluoromethyl)-2-azabicyclo[4.1.0]heptane-2-carboxamide] | 20 µM | – | > 10 µM
Cc1ccc(NC(=O)C2CC(C(F)(F)F)C2)cc1-c1ccccn1 (mixture of isomers) [Example 130, N-(4-methyl-3-pyridin-2-ylphenyl)-3-(trifluoromethyl)cyclobutane-1-carboxamide] | 2.6 µM | – | 1 to 10 µM
Cc1ccc(NC(=O)C2CCC(C)CCN2c2ccccn2)cc1-c1ncccn1 (mixture of isomers) [Example 259, 5-methyl-N-(4-methyl-3-(pyrimidin-2-yl)phenyl)-1-(pyridin-2-yl)azepane-2-carboxamide] | 5.8 µM | – | 1 to 10 µM
Cc1ccc(NC(=O)C2CC3CC3CN2c2ccccn2)cc1-c1ncc(F)cn1 (mixture of isomers) [Example 260, N-(3-(5-fluoropyrimidin-2-yl)-4-methylphenyl)-3-(pyridin-2-yl)-3-azabicyclo[4.1.0]heptane-4-carboxamide] | 1.3 µM | – | 1 to 10 µM
Cc1ccc(NC(=O)C2C3CCC2(c2ccn(C)n2)C3)cc1-c1ncc(F)cn1 (mixture of isomers) [Example 317] | 1 µM | – | 1 to 10 µM
Cc1ccc(NC(=O)C2C3CCC2(c2ccccn2)C3)cc1-c1ncc(F)cn1 (mixture of isomers) [Example 318] | 1.5 µM | – | 1 to 10 µM
Cc1ccc(NC(=O)N2CC[C@@H]3[C@@H](C)[C@@H]3C2)cc1-c1ccccn1 (racemic) [Example 37, trans-7-methyl-N-(4-methyl-3-(pyridin-2-yl)phenyl)-3-azabicyclo[4.1.0]heptane-3-carboxamide] | 0.1 µM | 0.0001 to 1 µM | –
COC(=O)[C@@H]1CC[C@@H]2C[C@H]1N2C(=O)Nc1ccc(C)c(-c2ccccn2)c1 (racemic) [Example 70, cis-methyl-6-((4-methyl-3-(pyridin-2-yl)phenyl)carbamoyl)-6-azabicyclo[3.1.1]heptane-2-carboxylate] | 1.9 µM | – | 1 to 10 µM
Cc1nnc(C2CCCN2C(=O)Nc2ccc(C)c(-c3ccccn3)c2)o1 (racemic) [Example 87, 2-(5-methyl-1,3,4-oxadiazol-2-yl)-N-(4-methyl-3-pyridin-2-ylphenyl)pyrrolidine-1-carboxamide] | 17 µM | – | > 10 µM
Cc1ccc(NC(=O)N2CCCC2c2ccn(C)n2)cc1-c1ccccn1 (racemic) [Example 88, 2-(1-methylpyrazol-3-yl)-N-(4-methyl-3-pyridin-2-ylphenyl)pyrrolidine-1-carboxamide] | 11 µM | – | > 10 µM
Cc1ccc(NC(=O)N2CCCC2c2ccnn2C)cc1-c1ccccn1 (racemic) [Example 89, 2-(2-methylpyrazol-3-yl)-N-(4-methyl-3-pyridin-2-ylphenyl)pyrrolidine-1-carboxamide] | 12 µM | – | > 10 µM
Cc1ccc(NC(=O)N2CCCC2c2cnn(C)c2)cc1-c1ccccn1 (racemic) [Example 90, 2-(1-methylpyrazol-4-yl)-N-(4-methyl-3-pyridin-2-ylphenyl)pyrrolidine-1-carboxamide] | 14 µM | – | > 10 µM
Cc1ccc(NC(=O)N2CCCC2c2ncccn2)cc1-c1ccccn1 (racemic) [Example 91, N-(4-methyl-3-pyridin-2-ylphenyl)-2-pyrimidin-2-ylpyrrolidine-1-carboxamide] | 16 µM | – | > 10 µM
Cc1ccc(NC(=O)N2CCCC2C2CC2)cc1-c1ccccn1 (racemic) [Example 92, 2-cyclopropyl-N-(4-methyl-3-pyridin-2-ylphenyl)pyrrolidine-1-carboxamide] | 2.3 µM | – | 1 to 10 µM
Cc1ccc(NC(=O)N2CCCC2c2nccn2C)cc1-c1ccccn1 (racemic) [Example 93, 2-(1-methylimidazol-2-yl)-N-(4-methyl-3-pyridin-2-ylphenyl)pyrrolidine-1-carboxamide] | 21 µM | – | > 10 µM
CC[C@H]1C[C@@H]1C(=O)Nc1ccc(C)c(-c2ccccn2)c1 (racemic) [Example 108, trans-2-ethyl-N-(4-methyl-3-pyridin-2-ylphenyl)cyclopropane-1-carboxamide] | 1.1 µM | – | 1 to 10 µM
Cc1ccc(NC(=O)C2CCC2(F)F)cc1-c1ccccn1 (racemic) [Example 111, 2,2-difluoro-N-(4-methyl-3-pyridin-2-ylphenyl)cyclobutane-1-carboxamide] | 2.8 µM | – | 1 to 10 µM
Cc1ccc(NC(=O)C2CCC23CC3)cc1-c1ccccn1 (racemic) [Example 113, N-(4-methyl-3-pyridin-2-ylphenyl)spiro[2.3]hexane-6-carboxamide] | 2.5 µM | – | 1 to 10 µM
Cc1ccc(NC(=O)[C@@H]2C[C@H]3C[C@H]32)cc1-c1ccccn1 (racemic) [Example 116, trans-N-(4-methyl-3-pyridin-2-ylphenyl)bicyclo[2.1.0]pentane-2-carboxamide] | 7.4 µM | – | 1 to 10 µM
Cc1ccc(NC(=O)C(C)(O)C2CCC2)cc1-c1ccccn1 (racemic) [Example 118, 2-cyclobutyl-2-hydroxy-N-(4-methyl-3-pyridin-2-ylphenyl)propanamide] | 6.1 µM | – | 1 to 10 µM
Cc1ccc(NC(=O)[C@@H]2C[C@@H]2C(F)(F)F)cc1-c1ccccn1 (racemic) [Example 124, cis-N-(4-methyl-3-pyridin-2-ylphenyl)-2-(trifluoromethyl)cyclopropane-1-carboxamide] | 3.1 µM | – | 1 to 10 µM
Cc1ccc(NC(=O)[C@H]2C[C@@H]2C(F)(F)F)cc1-c1ccccn1 (racemic) [Example 128, trans-N-(4-methyl-3-pyridin-2-ylphenyl)-2-(trifluoromethyl)cyclopropane-1-carboxamide] | 4.3 µM | – | 1 to 10 µM
Cc1ccc(NC(=O)[C@H]2[C@H](C)C2(F)F)cc1-c1ccccn1 (racemic) [Example 135, trans-2,2-difluoro-3-methyl-N-(4-methyl-3-pyridin-2-ylphenyl)cyclopropane-1-carboxamide] | 3.3 µM | – | 1 to 10 µM
Cc1ccc(NC(=O)C(C)C(F)(F)F)cc1-c1ncccn1 (racemic) [Example 169, 3,3,3-trifluoro-2-methyl-N-(4-methyl-3-pyrimidin-2-ylphenyl)propanamide] | 21 µM | – | > 10 µM
Cc1cc(F)c(NC(=O)N2[C@@H]3C[C@@H](C)C[C@@]2(C(C)(C)O)C3)cc1-c1ncc(F)cn1 (racemic) [Example 183, cis-N-(2-fluoro-5-(5-fluoropyrimidin-2-yl)-4-methylphenyl)-1-(2-hydroxypropan-2-yl)-3-methyl-6-azabicyclo[3.1.1]heptane-6-carboxamide] | 0.06 µM | 0.0001 to 1 µM | –

From patent US20250171462A1 (NICO Therapeutics, Inc., priority 2022, published 2025)
